Test [1] deals with T1, Protein kinase C zeta type (Homo sapiens, UniProt Q05513).
T1 sequence (Q05513 whole entry): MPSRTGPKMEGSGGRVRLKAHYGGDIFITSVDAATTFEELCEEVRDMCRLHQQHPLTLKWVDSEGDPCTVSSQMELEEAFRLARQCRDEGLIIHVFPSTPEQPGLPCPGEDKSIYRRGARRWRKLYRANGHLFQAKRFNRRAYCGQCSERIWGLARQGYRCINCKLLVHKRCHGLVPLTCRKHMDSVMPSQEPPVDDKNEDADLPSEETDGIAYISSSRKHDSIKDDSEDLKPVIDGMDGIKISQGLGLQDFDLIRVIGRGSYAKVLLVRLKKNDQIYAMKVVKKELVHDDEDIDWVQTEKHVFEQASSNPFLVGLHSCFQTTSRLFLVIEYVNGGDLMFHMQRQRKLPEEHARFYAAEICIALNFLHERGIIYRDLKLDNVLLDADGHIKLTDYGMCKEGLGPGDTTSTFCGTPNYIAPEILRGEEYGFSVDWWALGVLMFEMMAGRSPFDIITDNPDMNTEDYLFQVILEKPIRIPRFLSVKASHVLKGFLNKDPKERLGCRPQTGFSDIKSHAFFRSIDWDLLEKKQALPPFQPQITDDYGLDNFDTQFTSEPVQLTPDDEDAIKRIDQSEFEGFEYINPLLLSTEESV
The experiment in a line: Inhibition of human PKCzeta.

The species named for a further test is Homo sapiens. The experiment in a line: Selectivity ratio of IC50 for human CDK2 to IC50 for human PKCzeta.
Test [2] has as its target Cyclin-dependent kinase 2 (Homo sapiens, UniProt P24941). The experiment in a line: Inhibition of human CDK2.
Test [3] can be described thus: Inhibition of GSK3.
The target in test [4] is Tyrosine-protein kinase ZAP-70 (Homo sapiens) (UniProt P43403). In words: Inhibition of Zap70 at 10 uM.
Test [5] concerns the target Tyrosine-protein kinase SYK (Homo sapiens) (UniProt P43405). The experiment in a line: Inhibition of Syk at 10 uM.
For test [6], the target named is Tyrosine-protein kinase Fes/Fps (Homo sapiens) (UniProt P07332). In words: Inhibition of Fes at 10 uM.
The target in test [7] is 3-phosphoinositide-dependent protein kinase 1 (Homo sapiens) (UniProt O15530). In words: Inhibition of PDK1 at 10 uM.
Test [8] addresses RAC-gamma serine/threonine-protein kinase (Homo sapiens) (UniProt Q9Y243). The experiment in a line: Inhibition of PKB gamma at 10 uM.
In test [9] the target is Proto-oncogene tyrosine-protein kinase receptor Ret (Homo sapiens) (UniProt P07949). In words: Inhibition of Ret at 10 uM.
Test [10] in a line: Inhibition of CK2 at 10 uM.
Test [11] deals with Platelet-derived growth factor receptor beta (Homo sapiens) (UniProt P09619). The experiment in a line: Inhibition of PDGFRbeta at 10 uM.
Chain of Platelet-derived growth factor receptor beta (Homo sapiens) (P09619 whole entry): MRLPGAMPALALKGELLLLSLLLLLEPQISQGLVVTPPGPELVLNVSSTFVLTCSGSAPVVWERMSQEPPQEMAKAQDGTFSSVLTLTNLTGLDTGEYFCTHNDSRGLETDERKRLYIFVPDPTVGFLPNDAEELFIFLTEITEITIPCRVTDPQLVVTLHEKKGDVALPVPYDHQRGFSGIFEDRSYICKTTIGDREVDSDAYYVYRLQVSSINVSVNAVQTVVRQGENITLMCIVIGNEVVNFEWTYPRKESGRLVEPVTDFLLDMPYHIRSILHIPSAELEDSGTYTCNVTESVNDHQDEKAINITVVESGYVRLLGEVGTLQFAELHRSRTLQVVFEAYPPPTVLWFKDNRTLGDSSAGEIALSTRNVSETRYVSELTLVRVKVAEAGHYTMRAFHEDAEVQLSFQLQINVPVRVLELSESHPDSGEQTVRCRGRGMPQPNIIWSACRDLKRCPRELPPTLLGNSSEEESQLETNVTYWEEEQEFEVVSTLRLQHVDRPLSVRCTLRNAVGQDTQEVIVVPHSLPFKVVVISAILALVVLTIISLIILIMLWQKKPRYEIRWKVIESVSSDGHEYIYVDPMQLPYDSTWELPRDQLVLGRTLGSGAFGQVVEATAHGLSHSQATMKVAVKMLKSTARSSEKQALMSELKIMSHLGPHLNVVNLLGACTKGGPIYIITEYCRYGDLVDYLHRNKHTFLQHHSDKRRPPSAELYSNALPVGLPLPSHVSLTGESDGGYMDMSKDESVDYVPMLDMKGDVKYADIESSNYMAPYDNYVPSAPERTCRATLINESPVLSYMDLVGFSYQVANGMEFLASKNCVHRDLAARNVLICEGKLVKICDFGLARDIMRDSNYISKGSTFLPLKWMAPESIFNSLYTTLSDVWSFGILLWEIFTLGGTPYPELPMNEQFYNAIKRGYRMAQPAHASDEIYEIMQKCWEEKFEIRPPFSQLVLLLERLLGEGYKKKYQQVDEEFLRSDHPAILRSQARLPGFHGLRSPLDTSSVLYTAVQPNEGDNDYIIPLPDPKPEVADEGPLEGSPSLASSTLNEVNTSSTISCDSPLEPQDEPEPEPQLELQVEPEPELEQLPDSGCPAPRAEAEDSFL
Test [12] addresses RAC-beta serine/threonine-protein kinase (Homo sapiens) (UniProt P31751). The experiment in a line: Inhibition of PKB beta at 10 uM.
For test [13], the target named is Casein kinase I isoform delta (Rattus norvegicus) (UniProt Q06486). The experiment in a line: Inhibition of rat CK1delta at 10 uM.
Chain of Casein kinase I isoform delta (Rattus norvegicus) (Q06486 whole entry, looked up, canonical isoform): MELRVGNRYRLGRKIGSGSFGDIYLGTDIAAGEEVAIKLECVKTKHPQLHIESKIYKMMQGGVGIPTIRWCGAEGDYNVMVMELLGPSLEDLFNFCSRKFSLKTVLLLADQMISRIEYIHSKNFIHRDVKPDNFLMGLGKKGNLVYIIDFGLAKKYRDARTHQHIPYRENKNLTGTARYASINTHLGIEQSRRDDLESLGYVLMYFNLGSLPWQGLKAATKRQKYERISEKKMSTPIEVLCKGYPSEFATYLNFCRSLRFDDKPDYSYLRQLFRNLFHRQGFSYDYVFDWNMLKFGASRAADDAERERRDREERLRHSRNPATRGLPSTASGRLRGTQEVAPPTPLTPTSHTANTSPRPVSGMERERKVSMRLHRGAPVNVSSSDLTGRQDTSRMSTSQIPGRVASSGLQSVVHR
The target in test [14] is Tyrosine-protein kinase ABL1 (Homo sapiens) (UniProt P00519). In words: Inhibition of Abl at 10 uM.
For test [15], the target named is RAC-alpha serine/threonine-protein kinase (Homo sapiens) (UniProt P31749). In words: Inhibition of PKB alpha at 10 uM.
In test [16] the target is Insulin-like growth factor 1 receptor (Homo sapiens) (UniProt P08069). In words: Inhibition of IGF1R at 10 uM.
For test [17], the target named is Tyrosine-protein kinase Lck (Homo sapiens) (UniProt P06239). In words: Inhibition of Lck at 10 uM.
Test [18] concerns the target Insulin receptor (Homo sapiens) (UniProt P06213). The experiment in a line: Inhibition of insulin receptor at 10 uM.
Test [19] is described as follows: Inhibition of rat CAMK2 at 10 uM.
For test [20], the target named is Cytoplasmic tyrosine-protein kinase BMX (Homo sapiens) (UniProt P51813). The experiment in a line: Inhibition of Bmx at 10 uM.
Chain of Cytoplasmic tyrosine-protein kinase BMX (Homo sapiens) (P51813 whole entry): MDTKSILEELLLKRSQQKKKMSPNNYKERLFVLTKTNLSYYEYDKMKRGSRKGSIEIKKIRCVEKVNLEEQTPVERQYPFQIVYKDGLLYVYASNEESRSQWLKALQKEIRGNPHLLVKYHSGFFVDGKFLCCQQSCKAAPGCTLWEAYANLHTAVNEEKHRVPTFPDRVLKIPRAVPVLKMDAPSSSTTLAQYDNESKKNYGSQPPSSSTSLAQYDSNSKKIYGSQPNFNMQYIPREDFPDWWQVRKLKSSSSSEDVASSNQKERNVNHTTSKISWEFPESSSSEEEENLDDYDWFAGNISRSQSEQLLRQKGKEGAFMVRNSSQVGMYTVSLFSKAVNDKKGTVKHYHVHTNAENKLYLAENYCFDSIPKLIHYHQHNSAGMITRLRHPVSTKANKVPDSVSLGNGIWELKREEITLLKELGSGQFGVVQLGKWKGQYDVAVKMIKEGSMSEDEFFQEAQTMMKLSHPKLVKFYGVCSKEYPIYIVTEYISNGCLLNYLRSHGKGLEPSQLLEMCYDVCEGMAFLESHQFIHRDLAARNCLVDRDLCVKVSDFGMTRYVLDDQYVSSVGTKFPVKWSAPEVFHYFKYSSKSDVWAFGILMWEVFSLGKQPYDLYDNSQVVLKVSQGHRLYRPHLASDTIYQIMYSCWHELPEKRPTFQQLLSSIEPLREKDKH
In test [21] the target is ALK tyrosine kinase receptor (Homo sapiens) (UniProt Q9UM73). In words: Inhibition of ALK at 10 uM.
For another test, the species on record is Mus musculus. In words: Inhibition of mouse MKK4 at 10 uM.
Test [22] addresses Dual specificity mitogen-activated protein kinase kinase 1 (Homo sapiens) (UniProt Q02750). In words: Inhibition of MEK1 at 10 uM.
Test [23] concerns the target Rho-associated protein kinase 2 (Homo sapiens) (UniProt O75116). In words: Inhibition of Rock2 at 10 uM.
Test [24] deals with Proto-oncogene tyrosine-protein kinase Src (Homo sapiens) (UniProt P12931). In words: Inhibition of Src at 10 uM.
Chain of Proto-oncogene tyrosine-protein kinase Src (Homo sapiens) (P12931 2-536 limits assumed): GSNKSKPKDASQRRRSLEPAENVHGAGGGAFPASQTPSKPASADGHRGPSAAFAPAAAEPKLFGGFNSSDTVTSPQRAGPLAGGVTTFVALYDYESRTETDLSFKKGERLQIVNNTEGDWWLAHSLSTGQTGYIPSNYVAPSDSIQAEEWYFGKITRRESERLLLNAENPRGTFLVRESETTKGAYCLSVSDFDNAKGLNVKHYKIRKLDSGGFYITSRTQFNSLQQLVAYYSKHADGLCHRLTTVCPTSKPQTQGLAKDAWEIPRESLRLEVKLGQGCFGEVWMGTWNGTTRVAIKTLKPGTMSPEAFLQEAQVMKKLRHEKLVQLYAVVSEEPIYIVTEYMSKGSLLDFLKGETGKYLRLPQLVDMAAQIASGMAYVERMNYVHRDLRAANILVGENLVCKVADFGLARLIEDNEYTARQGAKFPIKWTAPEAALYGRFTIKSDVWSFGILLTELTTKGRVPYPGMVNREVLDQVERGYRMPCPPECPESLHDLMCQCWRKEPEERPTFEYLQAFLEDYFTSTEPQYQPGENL
For test [25], the target named is Glycogen synthase kinase-3 beta (Homo sapiens) (UniProt P49841). The experiment in a line: Inhibition of GSK3-beta at 10 uM.
The target in test [26] is Tyrosine-protein kinase Fyn (Homo sapiens) (UniProt P06241). The experiment in a line: Inhibition of Fyn at 10 uM.
The target in test [27] is Angiopoietin-1 receptor (Homo sapiens) (UniProt Q02763). The experiment in a line: Inhibition of Tie2 at 10 uM.
Chain of Angiopoietin-1 receptor (Homo sapiens) (Q02763 whole entry): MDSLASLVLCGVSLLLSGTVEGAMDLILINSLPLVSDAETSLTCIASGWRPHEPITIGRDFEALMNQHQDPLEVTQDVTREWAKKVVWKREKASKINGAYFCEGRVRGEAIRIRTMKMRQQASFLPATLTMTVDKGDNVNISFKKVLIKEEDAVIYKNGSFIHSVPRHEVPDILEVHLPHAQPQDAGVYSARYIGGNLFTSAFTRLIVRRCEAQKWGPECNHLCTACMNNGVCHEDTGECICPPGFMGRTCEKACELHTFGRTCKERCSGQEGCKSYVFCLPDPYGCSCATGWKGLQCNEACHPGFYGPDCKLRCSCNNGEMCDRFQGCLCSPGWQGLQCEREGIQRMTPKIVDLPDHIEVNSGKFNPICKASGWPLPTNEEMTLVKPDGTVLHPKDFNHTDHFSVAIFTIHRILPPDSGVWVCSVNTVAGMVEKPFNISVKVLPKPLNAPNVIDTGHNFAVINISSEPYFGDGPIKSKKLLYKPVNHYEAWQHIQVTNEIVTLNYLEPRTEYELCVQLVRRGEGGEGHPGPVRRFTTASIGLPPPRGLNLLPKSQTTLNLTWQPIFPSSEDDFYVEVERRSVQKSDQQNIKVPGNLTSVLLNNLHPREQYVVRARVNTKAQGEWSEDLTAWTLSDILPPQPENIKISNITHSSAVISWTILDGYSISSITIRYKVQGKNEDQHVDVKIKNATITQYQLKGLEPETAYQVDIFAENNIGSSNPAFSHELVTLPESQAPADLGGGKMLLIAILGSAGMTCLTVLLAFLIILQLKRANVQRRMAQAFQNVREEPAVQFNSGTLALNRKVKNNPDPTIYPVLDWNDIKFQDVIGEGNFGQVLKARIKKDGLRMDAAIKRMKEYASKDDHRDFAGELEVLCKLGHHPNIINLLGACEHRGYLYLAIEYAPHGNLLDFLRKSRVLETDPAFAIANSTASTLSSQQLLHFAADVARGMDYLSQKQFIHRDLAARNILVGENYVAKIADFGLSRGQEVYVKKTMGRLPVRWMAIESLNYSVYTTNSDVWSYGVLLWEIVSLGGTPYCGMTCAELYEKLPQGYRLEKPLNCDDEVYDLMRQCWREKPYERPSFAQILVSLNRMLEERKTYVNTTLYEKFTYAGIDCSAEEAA
For test [28], the target named is Serine/threonine-protein kinase Chk1 (Homo sapiens) (UniProt O14757). In words: Inhibition of CHK1 at 10 uM.
Test [29] concerns the target Aurora kinase A (Homo sapiens) (UniProt O14965). The experiment in a line: Inhibition of Aurora A at 10 uM.
Test [30] has as its target Epidermal growth factor receptor (Homo sapiens) (UniProt P00533). In words: Inhibition of EGFR at 10 uM.
Test [31] addresses BDNF/NT-3 growth factors receptor (Homo sapiens) (UniProt Q16620). The experiment in a line: Inhibition of TrkB at 10 uM.
The target of test [32] is Ephrin type-B receptor 4 (Homo sapiens) (UniProt P54760). The experiment in a line: Inhibition of EphB4 at 10 uM.
Test [33] is described as follows: Inhibition of PKA at 10 uM.
In test [34] the target is Ribosomal protein S6 kinase beta-1 (Homo sapiens) (UniProt P23443). In words: Inhibition of P70S6K at 10 uM.
The target in test [35] is Receptor-type tyrosine-protein kinase FLT3 (Homo sapiens) (UniProt P36888). The experiment in a line: Inhibition of Flt3 at 10 uM.
Test [36] addresses RAF proto-oncogene serine/threonine-protein kinase (Homo sapiens) (UniProt P04049). In words: Inhibition of c-Raf at 10 uM.
Test [37] concerns the target Tyrosine-protein kinase CSK (Homo sapiens) (UniProt P41240). The experiment in a line: Inhibition of CSK at 10 uM.
Test [38] deals with Calcium/calmodulin-dependent protein kinase type IV (Homo sapiens) (UniProt Q16566). The experiment in a line: Inhibition of CAMK4 at 10 uM.
Test [39] concerns the target Tyrosine-protein kinase receptor UFO (Homo sapiens) (UniProt P30530). The experiment in a line: Inhibition of Axl at 10 uM.

Structures are written as SMILES.

Chain of RAC-gamma serine/threonine-protein kinase (Homo sapiens) (Q9Y243 whole entry): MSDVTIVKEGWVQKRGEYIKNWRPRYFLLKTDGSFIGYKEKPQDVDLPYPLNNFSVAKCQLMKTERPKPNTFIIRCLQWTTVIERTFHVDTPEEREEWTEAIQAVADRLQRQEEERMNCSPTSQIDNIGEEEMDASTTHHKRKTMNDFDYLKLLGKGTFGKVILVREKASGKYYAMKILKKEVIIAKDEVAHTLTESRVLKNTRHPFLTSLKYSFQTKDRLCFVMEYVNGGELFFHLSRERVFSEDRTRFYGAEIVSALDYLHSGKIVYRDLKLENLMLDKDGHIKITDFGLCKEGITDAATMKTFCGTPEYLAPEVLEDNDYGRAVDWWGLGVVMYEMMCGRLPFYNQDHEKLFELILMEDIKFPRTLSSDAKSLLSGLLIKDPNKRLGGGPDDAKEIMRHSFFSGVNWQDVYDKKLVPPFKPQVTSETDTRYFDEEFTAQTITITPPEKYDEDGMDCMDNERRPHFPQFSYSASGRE
Chain of RAF proto-oncogene serine/threonine-protein kinase (Homo sapiens) (P04049 whole entry): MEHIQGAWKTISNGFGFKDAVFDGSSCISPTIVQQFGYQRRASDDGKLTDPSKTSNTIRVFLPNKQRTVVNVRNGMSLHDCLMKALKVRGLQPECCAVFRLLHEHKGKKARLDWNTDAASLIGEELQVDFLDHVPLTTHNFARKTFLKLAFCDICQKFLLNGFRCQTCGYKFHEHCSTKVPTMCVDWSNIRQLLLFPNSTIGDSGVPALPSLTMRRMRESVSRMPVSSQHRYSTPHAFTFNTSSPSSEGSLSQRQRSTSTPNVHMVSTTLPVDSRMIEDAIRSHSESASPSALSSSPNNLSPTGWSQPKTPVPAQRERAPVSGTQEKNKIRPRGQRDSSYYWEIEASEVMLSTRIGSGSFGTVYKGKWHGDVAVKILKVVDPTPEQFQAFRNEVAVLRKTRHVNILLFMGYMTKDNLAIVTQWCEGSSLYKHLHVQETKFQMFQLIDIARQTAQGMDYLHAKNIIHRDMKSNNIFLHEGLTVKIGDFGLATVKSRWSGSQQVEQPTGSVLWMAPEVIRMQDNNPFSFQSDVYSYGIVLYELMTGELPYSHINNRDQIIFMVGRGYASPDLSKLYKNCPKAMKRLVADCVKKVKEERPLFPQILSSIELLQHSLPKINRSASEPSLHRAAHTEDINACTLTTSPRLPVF

`COc1cc(-c2ccc3c(-c4nc5c(N6CCN(C)CC6)cccc5[nH]4)n[nH]c3c2)ccc1O`: the IC50 was determined as 0.00226 µM in [1] and 0.0041 µM in [2]. For the same compound, the Ratio IC50 in the test filed under Homo sapiens came out at 1.8.
For the compound `O=C(NC1CC1)c1n[nH]c2cc(-c3ccc(O)cc3)c(Br)cc12`, the figures for the IC50 in test [3] and in test [2] were 0.0008 µM and 0.005 µM, respectively.
For `CN1CCN(c2cccc3[nH]c(-c4n[nH]c5cc(-c6ccc(S(N)(=O)=O)cc6)ccc45)nc23)CC1`, in test [1], half-maximal inhibition (IC50) required 8.93 µM.
As to `CN1CCN(c2cccc3[nH]c(-c4n[nH]c5cc(-c6cccc(N)c6)ccc45)nc23)CC1`, the values for the IC50 in test [1] and in test [2] were 1.51 µM and 6.1 µM, respectively. In addition, the Ratio IC50 in the test listed under Homo sapiens amounted to 4.
`CN1CCN(c2cccc3[nH]c(-c4n[nH]c5cc(-c6ccc(CN)cc6)ccc45)nc23)CC1`: the IC50 in test [2] worked out at 10 µM.
As for `CN1CCN(c2cccc3nc(-c4n[nH]c5cc(-c6ccc(N)cc6)ccc45)[nH]c23)CC1`, the inhibition in test [4], in [5], in [6], in [7], in test [8] and in [9] was < 50% in each case. Moreover, the inhibition in [10], in test [11], in test [12], in test [13], in test [14] and in test [15] was < 50% throughout. For the same compound, the inhibition in [16], in test [17], in [18], in test [19], in [20] and in test [21] was < 50% throughout. Besides, the inhibition (in the test listed under Mus musculus; in [22]; in [23]; in [24]; in test [25]; in [26]) was < 50% throughout. For the same compound, the inhibition in test [27], in test [28], in test [29], in test [30], in test [31] and in [32] was < 50% in each case. Also, the inhibition in [33], in [34], in [35], in [36], in [37] and in test [38] was < 50% each time. The inhibition in test [39] is < 50%.
`COc1ccc(-c2ccc3c(-c4nc5c(N6CCN(C)CC6)cccc5[nH]4)n[nH]c3c2)c(OC)c1` yielded an IC50 in test [2] of 10 µM.
Take `COc1cc(O)ccc1-c1ccc2c(-c3nc4c(N5CCN(C)CC5)cccc4[nH]3)n[nH]c2c1`: the inhibition in test [4], in test [5], in test [6], in test [7], in [8] and in [9] was < 50% each time. Also, the inhibition in test [10], in test [11], in [12], in [13], in test [14] and in test [15] was < 50% throughout. For the same compound, the inhibition in [16], in test [17], in test [18], in [19], in [20] and in [21] was < 50% throughout. Moreover, the inhibition (in the test filed under Mus musculus; in [22]; in test [23]; in test [24]; in test [25]; in test [26]) was < 50% in each case. The inhibition in test [27], in [28], in test [29], in test [30], in test [31] and in [32] was < 50% in each case. The inhibition in test [33], in test [34], in [35], in [36], in test [37] and in [38] was < 50% in each case. In addition, in test [39], the inhibition is < 50%. The compound also showed an IC50 in test [2] of 0.102 µM.
In [2], `CN1CCN(c2cccc3[nH]c(-c4n[nH]c5cc(-c6ccc(O)cc6)ccc45)nc23)CC1` showed an IC50 of 0.0133 µM.
The compound `CN1CCN(c2cccc3[nH]c(-c4n[nH]c5cc(-c6ccc7c[nH]nc7c6)ccc45)nc23)CC1` gave an IC50 in test [1] of 1.07 µM.
With `COc1ccccc1-c1ccc2c(-c3nc4c(N5CCN(C)CC5)cccc4[nH]3)n[nH]c2c1`, the IC50 came to 5.52 µM in [1] and 10 µM in [2]. In the test filed under Homo sapiens, the Ratio IC50 is 1.8.
With `COc1cc(F)ccc1-c1ccc2c(-c3nc4c(N5CCN(C)CC5)cccc4[nH]3)n[nH]c2c1`, the IC50 was 19 µM in test [1] and 10 µM in [2]. In addition, the Ratio IC50 in the test listed under Homo sapiens is 0.5.
For the compound `CN1CCN(c2cccc3[nH]c(-c4n[nH]c5cc(-c6ccc(N(C)C)cc6)ccc45)nc23)CC1`, in test [1], the IC50 amounted to 1.31 µM.
`CN1CCN(c2cccc3[nH]c(-c4n[nH]c5cc(-c6ccc(CO)cc6)ccc45)nc23)CC1`: in test [2], the IC50 amounted to 21.5 µM.
Still for that read-out and setting: as for `CNc1ccc(-c2ccc3c(-c4nc5c(N6CCN(C)CC6)cccc5[nH]4)n[nH]c3c2)cc1`, the figure is 109 µM.
In turn, `CC(=O)c1ccc(-c2ccc3c(-c4nc5c(N6CCN(C)CC6)cccc5[nH]4)n[nH]c3c2)cc1` registered an IC50 in [2] of 10 µM.
With `COc1cc(-c2ccc3c(-c4nc5c(N6CCN(C)CC6)cccc5[nH]4)n[nH]c3c2)ccc1N`, the IC50 in [2] was determined as 0.247 µM.
`CN1CCN(c2cccc3[nH]c(-c4n[nH]c5cc(-c6ccc(C(=O)O)cc6)ccc45)nc23)CC1` came in with an IC50 in test [2] of 10 µM.
Turning to `CN1CCN(c2cccc3[nH]c(-c4n[nH]c5cc(-c6ccc(N)c(F)c6)ccc45)nc23)CC1`, in [2], half-maximal inhibition (IC50) was put at 1.73 µM.
Consider `CN1CCN(c2cccc3[nH]c(-c4n[nH]c5cc(-c6ccc7[nH]ccc7c6)ccc45)nc23)CC1`, for which the IC50 in test [1] is 4.08 µM; in test [2], 10 µM. Besides, the Ratio IC50 in the test filed under Homo sapiens came out at 2.5.
In the same order, the values of `CC(=O)Nc1ccc(-c2ccc3c(-c4nc5c(N6CCN(C)CC6)cccc5[nH]4)n[nH]c3c2)cc1` are 8.8 µM, 10 µM and 1.1.

Values taken from ChEMBL document CHEMBL1143269, “2-(6-Phenyl-1H-indazol-3-yl)-1H-benzo[d]imidazoles: design and synthesis of a potent and isoform selective PKC-zeta inhibitor” (Bioorg Med Chem Lett, 2009).
